The source of these data is patent publication US6835715B1, “Mammalian dihydroouabain-like factor and therapeutic compositions” (University of Louisville Research Foundation, Inc., priority 1999, dated 2004).

Structures are written as SMILES.

One may read the IC50 as the concentration at which inhibition is half-maximal.

Experiment [1] concerns the target porcine cerebral cortex Na+,K+-ATPase. As to the kind of experiment: Inhibition of Na+,K+-ATPase catalytic activity (phosphate release from ATP). Format: biochemical. As to the method:
Dried frozen powder of porcine cerebral cortical tissue (PCC) was reconstituted at 1 Unit/ml in buffer containing; 50 mM Tris-HCl and 2 mM MgCl2, at a pH of 7.2. The reconstituted tissue was then washed three times and resuspended in the same buffer. The protein concentration was determined by BIO-RAD Protein Assay (Bio-Rad, Hercules, Calif.), adjusted to about 1 mg/ml and used both in the catalytic inhibition and ouabain-stimulated phosphorylation experiments (PAGE and Western analysis). The inhibition assay was performed briefly by pipetting 20 μl of sample containing the desired concentration of glycoside (Tris buffer was used for no-inhibitor control) into a well of a microtiter plate placed in a 37° C. water bath for 10 minutes. […] After the incubation period, we added 150 μl of molybdate solution (per liter, 1.0 mmol of molybdate, 11 mmol of sulfuric acid, and 142 ml of Tween 80: methanol solution (12:88 by vol). After 30 minutes of incubation, color development was allowed to proceed for a maximum of 30 min. after which the color intensity was measured by pipetting 150 μl of the reaction mixture from each well to a corresponding well on another microtiter plate. The color intensity is proportional to the release of phosphate ions which is a direct indicator of ATP breakdown and therefore NKA activity. The absorbances were measured simultaneously at 340 nm. […]

The subject of a further experiment is anti-ouabain antibody. In words: Ouabain EIA, cross-reactivity with anti-ouabain antibody. In kind it is binding. Conditions: for cross-reactivity with ouabain antibody: ouabain = 100%. The method, then: UV spectral properties, molar absorptivity, and concentrations of these endogenous factors were calculated.
(§1) OLF was measured using ouabain EIA. This assay uses ouabain covalently bound to the microtiter plate to compete with unbound samples or standards for binding to a constant amount of anti-ouabain antibody (Harris et al., 1991). Dihydroouabain-like immunoreactivity was measured by EIA using a polyclonal dihydroouabain-specific antibody prepared according to our specifications by HTI Bio-Product Inc (Ramona, Calif.). The antibody production strategy was as follows: dihydroouabain (dho) was conjugated to keyhole limpet hemocyanin (KLH) through the rhamnose sugar ring and the resulting conjugate was injected in three rabbits. Blood samples from the rabbits were drawn three weeks after the primary injection, and every two weeks after subsequent booster injections.
Two specific antibodies, one against ouabain and one against dihydroouabain, were used to characterize OLF and DH-OLF. Both of these antibodies are sensitive to structural changes at the lactone ring epitope of these molecules. […] The concentrations were determined using molar absorptivities as described above.

In experiment [2] the test system is anti-dihydroouabain antibody. In words: Dihydroouabain EIA, cross-reactivity with anti-dihydroouabain antibody. In kind it is binding, rabbit. Conditions: dihydroouabain = 100%. As to the method:
as §1, with “injections. […]” for “injections.”
Briefly, immunoassay plates were coated with approximately 0.5 μg dho-BSA conjugate/well for a minimum of 18 hrs. at 4° C. […] Color development was monitored at 650 nm for a maximum of 30 min. after which the reaction was stopped with TMB Stop buffer and the plate was then read at 450 nm. The readings were adjusted with a system blank and for non-specific binding.
Two specific antibodies, one against ouabain and one against dihydroouabain, were used to characterize OLF and DH-OLF. […] The concentrations were determined using molar absorptivities as described above.

The test system of experiment [3] is Na+,K+-ATPase α-subunits (porcine cerebral cortical tissue). As to the kind of experiment: Ouabain-stimulated 32Pi phosphorylation of Na+,K+-ATPase alpha subunit. In kind it is biochemical. Conditions: equimolar concentrations; ouabain = 100%; listed as Dho. The method, then:
The ouabain-stimulated phosphorylation of Na^+, K^+-ATPase by phosphate was performed as described in Huang et al., (1994) with some minor modifications. Since the covalently phosphorylated intermediate of the sodium pump formed from inorganic phosphorous (^32Pi) is alkali-labile (acid-stable phosphenzyme intermediate), acidic pH gel electrophoresis was used to resolve the radioactively labeled protein species. Briefly, 60 μl aliquots containing 100-200 μg of porcine cerebral cortical tissues (PCC) were pre-incubated at room temperature for 25 min. with 20 μl of sample in the reaction buffer (50 mM Tris-HCL and 2 mM MgCl2, pH 7.2). A positive control was pre-incubated with 20 μl of a 1 mM ouabain solution also, a negative control was pre-incubated with 20 μl of buffer alone. 10 μl of ^32Pi (1 mCi in 100 μl) was diluted with 250 μl of phosphoric acid and purified through 0.2 μm filter to remove polyphosphates. At the end of the incubation, 20 μl of the ^32Pi filtrate (30 μM, 8 uCi) was added to the mixture and allowed to incubate at room temperature for an additional 15 minutes. The reaction was terminated by the addition of 1 ml 8% HCLO4 which precipitated the proteins and left unincorporated ^32Pi in solution. […] Autoradiograms were quantitated using a soft laser scanning densitometer. […]

Consider `C[C@@H]1O[C@@H](O[C@H]2C[C@@H](O)[C@]3(CO)[C@H]4[C@H](O)C[C@]5(C)[C@@H]([C@@H]6COC(=O)C6)CC[C@]5(O)[C@@H]4CC[C@]3(O)C2)[C@H](O)[C@H](O)[C@H]1O` [dho-B], for which, in experiment [1] (porcine cerebral cortex enzyme, read-out: IC50 for inhibiting the catalytic activity of the Na+,K+-ATPase enzyme), the IC50 is 1.7 µM. Further, the “times less potent than ouabain for inhibition of Na+,K+-ATPase” value in experiment [1] (relative to ouabain) is 3 times.

Consider `C[C@@H]1O[C@@H](O[C@H]2C[C@@H](O)[C@]3(CO)[C@H]4[C@H](O)C[C@]5(C)[C@@H]([C@@H]6COC(=O)C6)CC[C@]5(O)[C@@H]4CC[C@]3(O)C2)[C@H](O)[C@H](O)[C@H]1O` [dihydroouabain, Dihydroouabain], for which, in the experiment on anti-ouabain antibody, the “affinity for anti-ouabain antibody” value is given as “little affinity” and the “cross-reactivity with ouabain antibody” value is 2-3%. In experiment [2], the “cross-reactivity with dihydroouabain antibody” value stood at 100%. For the same compound, the “phosphorylation activity relative to ouabain” value in experiment [3] was determined as 82%.

With `C[C@@H]1O[C@@H](O[C@H]2C[C@@H](O)[C@]3(CO)[C@H]4[C@H](O)C[C@]5(C)[C@@H](C6=CC(=O)OC6)CC[C@]5(O)[C@@H]4CC[C@]3(O)C2)[C@H](O)[C@H](O)[C@H]1O` [ouabain, Ouabain], the “cross-reactivity with ouabain antibody” value in the experiment with anti-ouabain antibody came to 100%. The “cross-reactivity with dihydroouabain antibody” value in experiment [2] stood at 0.1%.
